Data taken from patent US7267815B2, “Methods and reagents for the enhancement of virus transduction in the bladder epithelium” (priority 2002, dated 2007).

Tests used:
[1] = test system: SW780+ Luc orthotopic bladder tumor; experiment: DDM as chemical enhancer prior to Ad.LacZ infection of orthotopic bladder tumor model; assay type: in vivo, NCR nu/nu Mouse; conditions: DDM pretreatment (QQ5 minQ), 15 min Ad.Lac Z, 96 hrs; except dead necrotic tumor cells
Source text: In each case, >90% Ad-βgal expression was achieved. Therefore, DDM from either manufacturer is a good candidate for a chemical enhancer for adenovirus infection in mice bladder. Efficacy of Dodecyl-β-D-Maltoside as Chemical Enhancer Prior to Adenovirus Infection of SW780+ Luc Orthotopic Bladder Tumor Model in Mice • Species: Female NCR nu/nu Mouse (Taconic Laboratory)-2/group • Study Design: To show DDM pretreatments enhance Ad.Lac Z infectivity in mice bladder urothelium. To further confirm the enhancer effect on orthotopic tumors, two mice bearing orthotopic SW780 bladder tumors were pretreated with or without DDM (QQ5 minQ) followed by 15 min Ad.Lac Z instillation. The Ad.Lac Z gene expression levels were checked in these tumor cells 4 days post Ad.Lac Z infection. • Dose/Route:
Dodecyl-β-D-Maltoside (Lot#018H7250).
Results: There was a significant difference in Ad-βgal gene expression levels between mice bladders pretreated with DDM and control animals. Without DDM pretreatment, there was very low Ad-βgal gene expression levels in bladder epithelium cells and tumor cells. With DDM pretreatment, nearly 100% of the epithelium cells were transduced with Ad-βgal gene in bladder tumors except those dead necrotic tumor cells. It was concluded that DDM pretreatment enhances Adenovirus infection in orthotopic tumor cells. […]

bladder epithelium [2] = experiment: Transduction efficacy of exemplary pretreatment agents (summary Table 7); assay type: in vivo, mouse; conditions: pretreatment agent
bladder epithelium [3] = experiment: Effect of chemical agent pretreatment on adenovirus-mediated gene transfer and expression (Ad-βgal, X-gal staining); assay type: in vivo, mouse (BALB/c)
Experimental: 152 female BALB/c mice were used this study.
The route of administration of the chemical agent and virus was intravesical.
3. Based on the reagent being tested, bladder pretreatment was performed as follows:
Poloxomer 407 procedure: Washed 2 times with 100 μl each. Retained the 3rd wash for 5 min and gave one additional wash. Performed 3 times PBS wash prior to virus instillation.
Poloxomer 188 procedure: Washed 2 times with 100 μl each. Retained the 3rd wash for 5 minutes and gave one additional wash. Performed 3 times PBS wash prior to virus instillation.
Lipofectamine 2000 procedure: Added 5 μl of stock Lipofectamine (1 mg/ml) to 195 μl of PBS-10% glycerol. Mixed with an equal volume of Ad-βgal virus and incubated for 15 minutes. Administered 100 μl of the mixture intravesically and retained in the bladder for 30 minutes.
Benzyl Alcohol procedure: Washed 2 times with 100 μl each. Retained the 3rd wash for 15 minutes and then gave one additional wash. Performed 3 times PBS wash prior to virus instillation.
Performed 3 times PBS wash prior to virus instillation.
Polidocanol procedure: Washed 2 times with 100 μl each. Retained the 3rd wash for 5 min and then gave one additional wash. Performed 3 times PBS wash prior to virus instillation.
DC-Cho procedure: Washed 2 times with 100 μl each. Retained the 3rd wash for 5 min and then gave one additional wash. Performed 3 times PBS wash prior to virus instillation.
0.4% HPMC 2910 procedure: No pretreatment. An equal volume of the virus was mixed with 0.8% solution of HPMC2910 and the mixture was instilled into the bladder for 30 minutes.
100 mg/ml Poly-Lysine procedure: No pretreatment. An equal volume of the virus was mixed with 100 mg/ml solution of Poly-Lysine and the mixture was instilled into the bladder for 30 minutes.
0.4% polyvinyl alcohol (PVA) procedure: No pretreatment. An equal volume of the virus was mixed with 0.8% solution of PVA and the mixture was instilled into the bladder for 30 minutes.
n-dodecyl-β-D glucopyranoside procedure: Washed 2 times with 100 μl each. Retained the 3rd wash for 5 min and then gave one additional wash. Performed 3 times PBS wash prior to virus instillation.
0.4% PVP procedure: No pretreatment. An equal volume of the virus was mixed with 0.8% solution of PVP and the mixture was instilled into the bladder for 30 min.
0.1% cholesterol-cyclodextrin reagent procedure: No pretreatment. An equal volume of the virus was mixed with 0.2% solution of Cholesterol-Cyclodextrin and the mixture was instilled into the bladder for 30 minutes.
n-dodecyl-β-D-maltoside procedure: Washed 2 times with 100 μl each. Retained the 3rd wash for 5 min and then gave one additional wash. Performed 3 times PBS wash prior to virus instillation.
Sodium salt of dodecyl benzenesulfonic acid procedure: Washed 2 times with 100 μl each. Retained the 3rd wash for 5 min and then gave one additional wash. Performed 3 times PBS wash prior to virus instillation.
0.1% sodium dodecyl sulphate procedure: Wash 2 times with 100 μl each. Retained the 3rd wash for 5 min and then gave one additional wash. Performed 3 times PBS wash prior to virus instillation.
0.1% Tween 20 procedure: Washed 2 times with 100 μl each. Retained the 3rd wash for 5 min and then gave one additional wash. Performed 3 times PBS wash prior to virus instillation.
0.1% Triton® X-100 procedure: Washed 2 times with 100 μl each. Retained the 3rd wash for 5 min and then gave one additional wash. Perform 3 times PBS wash prior to virus instillation.
0.1% Forlan C-24 procedure: Washed 2 times with 100 μl each. Retained the 3rd wash for 5 min and then gave one additional wash. Performed 3 times PBS wash prior to virus instillation.
0.1% decyl-b-D-maltoside procedure: Washed 2 times with 100 μl each. Retained the 3rd wash for 5 min and then gave one additional wash. Performed 3 times PBS wash prior to virus instillation.
0.1% 6-cyclohexylhexyl-b-D-maltoside procedure: Washed 2 times with 100 μl each. […]

adenovirus = experiment: Study #3: compatibility of adenovirus with selected enhancers (plaque assay); assay type: physicochemical
Experimental: For this study, each sample was incubated at 37° C. or 25° C. before the plaque assay started.

CCCCCCCCCCCCO[C@@H]1O[C@H](CO)[C@@H](O[C@H]2O[C@H](CO)[C@@H](O)[C@H](O)[C@H]2O)[C@H](O)[C@H]1O [n-dodecyl β-D-maltoside, n-dodecyl-β-D-maltoside]
epithelium cells transduced with Ad-βgal gene in bladder tumors [1]: ~100% | Transduction Efficacy (bladder epithelium [2]): ++++ (“++++” means >75% transduction efficacy) | response class (level of transduction) (bladder epithelium [3]): strongest response | transduction of the urothelium (bladder epithelium [3]; 0.02% pre-treatment for 5 minutes): 50-80% | transduction of the urothelium (bladder epithelium [3]; 0.05% pre-treatment for 5 minutes): > 90% | transduction of the urothelium (bladder epithelium [3]; 0.2% pre-treatment for 5 minutes): > 90% | effect on transduction (in words) (bladder epithelium [3]; bladder pretreatment followed by Ad-LacZ): increased transduction significantly | Average pfu/mL (adenovirus; 25° C., 2 hours): 1.32E+10 pfu/mL | Ratio vp/pfu (adenovirus; 25° C., 2 hours): 16 vp/pfu | Average pfu/mL (adenovirus; 37° C., 1 hour): 1.36E+10 pfu/mL | Ratio vp/pfu (adenovirus; 37° C., 1 hour): 16 vp/pfu | compatibility with the adenovirus (in words) (adenovirus; under the experimental conditions of Table 5): compatible with the adenovirus
